In article PMC12074479, “Design, Synthesis, and Biological Evaluation of New Analogs of Aurein 1.2 Containing Non-Proteinogenic Amino Acids” (Molecules, 2025):
≈ marks a conversion by molar mass, not a printed value. Like-named read-outs stand apart in the source and are kept apart here. Where a SMILES comes first, the peptide text is derived from it. Where no end group is shown, it is not given here. [ ]: non-standard residue; d: D form. Orn = NCCC[C@H](N)C(=O)O; Dap = NC[C@H](N)C(=O)O

Tests used:
MDA-MB-231 = assay: cells; conditions: 72 h
Experimental: (§1) The peptides were studied for antiproliferative activity with an MTT-dye reduction assay. Cell cultures were incubated with the test peptides in twofold increasing concentrations (from 2 to 500 μM) for 72 h.
(§2) The antiproliferative activity of the peptides was determined in normal epithelial cells (MCF-12F) and tumor cells (MCF-7 and MDA-MB-231) by MTT-assay. Cells were plated 1 × 10^3 cells/100 µL/well of 96-well plates and incubated in a thermostat under standard conditions for 24 h. Cells were then incubated with the tested peptide analogs for 72 h in different concentrations (from 2 to 500 µM). The optical density of the formazan was measured at λ = 540 nm using a microplate reader. Antiproliferative activity was expressed as % from negative control. […] The statistical analysis of the results was performed using one-way ANOVA followed by Bonferroni’s post hoc test by GraphPad Prism 8 software (San Diego, CA, USA).

MCF-7 = assay: cells; conditions: 72 h
Experimental: as §1, §2

MCF-12F = assay: cells; conditions: 72 h
Experimental: as §1, §2

BALB 3T3 cells = assay: in vitro
Experimental: (§3) An in vitro BALB 3T3 Neutral Red Uptake assay was used to determine the cytotoxicity/phototoxicity of the peptides. Cytotoxicity of peptide analogs was calculated as a percentage relative to the negative control. […] Photo irritation factor (PIF) was used to assess the phototoxic potential of the peptide analogs. The PIF factor represents the ratio between the CC50 values of dark (non-irradiated or—Irr) and irradiated (+Irr) microplates, PIF = (CC50 − Irr)/(CC50 + Irr).
(§4) Mouse embryonic fibroblasts (BALB 3T3) were used to perform the cytotoxicity and phototoxicity tests. The tests were performed by OECD Guidelines for the Testing of Chemicals, Section 4, Test No. 432. Cells were plated at 1 × 10^4 cells/well in 96-well plates. Cells were incubated in a thermostat for 24 h. Then, the test peptides were added at various working concentrations (4–1000 μM). In the phototoxicity test, 96-well plates were irradiated with a dose of 2.4 J/cm^2 using a solar light simulator Helios-iO (SERIC Ltd., Tokyo, Japan). Cell viability was measured using the BALB 3T3 neutral red uptake test. Cytotoxicity is presented as % relative to the negative control.

in vitro = conditions: mouse, Mean CC50 ± SD
Experimental: as §3, §4

[1] = test system: Bacillus subtilis NBIMCC 3562
Experimental: (§5) The antimicrobial activity of the 7 new analogs of aurein 1.2 was evaluated by determining the MIC and MBC against Gram-positive strain Bacillus subtilis 3562 and Gram-negative strain Escherichia coli K12 407. The MIC of the newly synthesized analogs was assessed by applying a broth microdilution method, whereas their MBC was determined by using a spread plate method. All experiments were performed in triplicate.
(§6) Bacillus subtilis NBIMCC 3562 and Escherichia coli NBIMCC K12 407 were used as test microorganisms and were purchased from the National Bank for Industrial Microorganisms and Cell Cultures (NBIMCC, Sofia, Bulgaria). Exponential cultures were obtained in Nutrient broth (NB, HiMedia, Mumbai, India) for B. subtilis NBIMCC 3562 and Luria-Bertani (LB, HiMedia, Mumbai, India) for E. coli NBIMCC K12 407, after cultivation in an incubator shaker ES-20/60 (Biosan, Latvia) at 30/37 °C for 24 h. Then, the turbidity of the microbial cultures was adjusted to the 0.5 McFarland standard using a Grant Bio DEN-1B Densitometer (Grant Instruments, Royston, UK).
(§7) The antimicrobial activity of the obtained aurein 1.2 analogs was evaluated using the broth microdilution method, recommended by the Clinical and Laboratory Standards Institute (CLSI), to determine the minimum inhibitory concentration (MIC) of the peptides against B. subtilis NBIMCC 3562 and E. coli NBIMCC K12 407. All peptides were previously dissolved in 10% EtOH/H2O, and their 10 mg/mL stock solutions were stored at −20 °C. Bacterial cultures, previously adjusted to 0.5 McFarland standard, were incubated in the presence of different peptide concentrations (0–320 µg/mL) in 96-well polystyrene microplates (Deltalab S.L., Barcelona, Spain) at 30/37 °C for 24 h. The lowest concentration of each peptide, which inhibited bacterial growth, was considered as MIC. In addition, a drop of 20 µL of the 24 h inhibitory concentration test samples was spotted on the corresponding solid media to determine the minimum bactericidal concentration (MBC). […] All experiments were performed in triplicate.

[2] = test system: Escherichia coli NBIMCC K12 407; conditions: broth microdilution, 0–320 µg/mL, 24 h; NI = no inhibition monitored
Experimental: as §5, §6, §7

[3] = read-out: Mean IC50 ± SD, MDA-MB-231, MTT
[4] = read-out: Mean IC50 ± SD, MCF-7, MTT
[5] = read-out: Mean IC50 ± SD, MCF-12F, MTT, normal cell line
[6] = PIF = (CC50 −Irr)/(CC50 +Irr), PIF < 2 not phototoxic, 2 < PIF < 5 possible phototoxicity, PIF > 5 phototoxic
[7] = +Irr, BALB 3T3 cells, irradiated 2.4 J/cm^2, NRU
[8] = −Irr, BALB 3T3 cells, non-irradiated (dark), NRU
[9] = broth microdilution, 0–320 µg/mL, 24 h, NI = no inhibition monitored

Compound	IC50 (MDA-MB-231)	IC50 (MCF-7)	IC50 (MCF-12F)	PIF (Photo Irritation Factor) (BALB 3T3 cells)	Toxicity compared to the parent peptide aurein 1.2 (BALB 3T3 cells; BALB 3T3 cells, fold lower toxicity)	CC50 (in vitro; +Irr)	MIC, Bacillus subtilis NBIMCC 3562 ([1]; NBIMCC 3562, 24 h)	IC50 (MDA-MB-231; [3])	IC50 (MCF-7; [4])	IC50 (MCF-12F; [5])	PIF (Photo Irritation Factor) (BALB 3T3 cells; [6])	CC50 (in vitro; [7])	CC50 (in vitro; [8])	MBC, Bacillus subtilis NBIMCC 3562 ([1]; 0–320 µg/mL, NI = no inhibition monitored)	MIC, Bacillus subtilis NBIMCC 3562 [1, 9]	MIC, Escherichia coli NBIMCC K12 407 [2]
CC[C@H](C)[C@H](NC(=O)[C@H](CN)NC(=O)[C@H](CN)NC(=O)[C@@H](NC(=O)[C@@H](NC(=O)[C@H](CC(=O)O)NC(=O)[C@H](Cc1ccccc1)NC(=O)[C@H](CC(C)C)NC(=O)CN)[C@@H](C)CC)[C@@H](C)CC)C(=O)N[C@@H](C)C(=O)N[C@@H](CCC(=O)O)C(=O)N[C@@H](CO)C(=O)N[C@@H](Cc1ccccc1)C(N)=O [EH [Dap]^7,8, Gly-Leu-Phe-Asp-Ile-Ile-Dap^7-Dap^8-Ile-Ala-Glu-Ser-Phe-NH2] (H-GLFDII[Dap][Dap]IAESF-NH2)	372.2 ± 3.17 µM	289 ± 19.8 µM	308 ± 21.7 µM	1.01	two to four times lower toxicity	357.5 ± 3.03 µM	320 µg/mL (≈ 229 µM)									
CC[C@H](C)[C@H](NC(=O)[C@H](CCCN)NC(=O)[C@H](CCCN)NC(=O)[C@@H](NC(=O)[C@@H](NC(=O)[C@H](CC(=O)O)NC(=O)[C@H](Cc1ccccc1)NC(=O)[C@H](CC(C)C)NC(=O)CN)[C@@H](C)CC)[C@@H](C)CC)C(=O)N[C@@H](C)C(=O)N[C@@H](CCC(=O)O)C(=O)N[C@@H](CO)C(=O)N[C@@H](Cc1ccccc1)C(N)=O [EH [Orn]^7,8, Gly-Leu-Phe-Asp-Ile-Ile-Orn^7-Orn^8-Ile-Ala-Glu-Ser-Phe-NH2] (H-GLFDII[Orn][Orn]IAESF-NH2)								123 ± 6.47 µM	88.9 ± 3.14 µM	112 ± 7.14 µM	1.55	101 ± 3.7 µM	157 ± 6.38 µM	320 µg/mL (≈ 220 µM)	80 µg/mL (≈ 55.1 µM)	80 µg/mL (≈ 55.1 µM)
CC[C@H](C)[C@H](NC(=O)[C@H](CCCCN)NC(=O)[C@H](CCCN)NC(=O)[C@@H](NC(=O)[C@@H](NC(=O)[C@H](CC(=O)O)NC(=O)[C@H](Cc1ccccc1)NC(=O)[C@H](CC(C)C)NC(=O)CN)[C@@H](C)CC)[C@@H](C)CC)C(=O)N[C@@H](C)C(=O)N[C@@H](CCC(=O)O)C(=O)N[C@@H](CO)C(=O)N[C@@H](Cc1ccccc1)C(N)=O [EH [Orn]^7, Gly-Leu-Phe-Asp-Ile-Ile-Orn^7-Lys-Ile-Ala-Glu-Ser-Phe-NH2] (H-GLFDII[Orn]KIAESF-NH2)												102 ± 7.4 µM	134 ± 7.4 µM			
CC[C@H](C)[C@H](NC(=O)[C@H](CCCN)NC(=O)[C@H](CCCCN)NC(=O)[C@@H](NC(=O)[C@@H](NC(=O)[C@H](CC(=O)O)NC(=O)[C@H](Cc1ccccc1)NC(=O)[C@H](CC(C)C)NC(=O)CN)[C@@H](C)CC)[C@@H](C)CC)C(=O)N[C@@H](C)C(=O)N[C@@H](CCC(=O)O)C(=O)N[C@@H](CO)C(=O)N[C@@H](Cc1ccccc1)C(N)=O [EH [Orn]^8, Gly-Leu-Phe-Asp-Ile-Ile-Lys-Orn^8-Ile-Ala-Glu-Ser-Phe-NH2] (H-GLFDIIK[Orn]IAESF-NH2)												59.5 ± 5.21 µM	75.6 ± 3.33 µM			
GLFDIIKKIAESF-NH2 [Aurein 1.2, Gly^1-Leu^2-Phe^3-Asp^4-Ile^5-Ile^6-Lys^7-Lys^8-Ile^9-Ala^10-Glu^11-Ser^12-Phe^13-NH2]								70.9 ± 2.06 µM	68.9 ± 2.12 µM	71.4 ± 2.88 µM	1	87.2 ± 1.88 µM	87.6 ± 2.45 µM		160 µg/mL	40 µg/mL
